The results in this text go back to patent US12043625B2, “Pyridine derivatives with c-linked cyclic substituents as cGAS inhibitors” (BOEHRINGER INGELHEIM INTERNATIONAL GMBH, priority 2021, dated 2024).

One assay concerns the target Human cGAS (Homo sapiens (Human), UniProt Q8N884). Nature of the assay: Human cGAS enzyme assay (hcGAS IC50, in vitro), cGAMP formation by RapidFire MS.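 Note: compounds preincubated 60 min, then GTP and ATP (30 µM each) added for 90 min at room temperature, cGAMP read relative to cyclic-di-GMP internal standard, no-enzyme/DNA wells as 0%.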 Type of assay: biochemical. Conditions: 45 bp dsDNA, GTP/ATP.
Assay [1] deals with IFN induction in virus-stimulated THP1 cells. Nature of the assay: Human cGAS cell assay, baculovirus-stimulated THP1-Dual cells, Lucia luciferase reporter (THP1(vir) IC50).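 For all read-outs here: IRF-dependent luminescence, 8 concentrations up to 10 µM in 1% DMSO, 0% = unstimulated cells, 100% = DMSO plus virus, counter assay stimulated with cGAMP downstream of cGAS.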 The class given is cell-based. The settings on record: for pIC50: Homo sapiens, THP-1, baculovirus-stimulated THP1-Dual cells, 18 h; for Ratio THP(cGAMP) IC50/THP(vir) IC50: selectivity for cGAS inhibition. A general note: Reporter assays use an easily measured gene product as a stand-in for the process of interest.
Source text: THP1-Dual™ cells (InvivoGen #thpd-nfis) expressing IRF dependent Lucia luciferase reporter were used as basis for both assays. For the detection of cellular cGAS activity cells were stimulated by a baculovirus (pFastbac-1, Invitrogen, no coding insert) infection that delivers the cGAS enzyme stimulating double-stranded DNA (measurement of THP1(vir) IC50).
(§1) For the counter assay, cells were stimulated by cGAMP (SigmaAldrich #SML1232) to activate the identical pathway independent and directly downstream of cGAS (measurement of THP1(cAMP) IC50). Pathway activity was monitored by measuring the Lucia luciferase activity induced by either DNA stimulated cGAS enzyme activity (measurement of THP1^(vir) IC50) or by cGAMP directly (measurement of THP1(cAMP) IC50, counter assay).
Typically, 8 concentrations were used with the highest concentration at 10 μM in the final assay volume followed by ˜1:5 dilution steps. DMSO concentration was set to 1% in the final assay volume. The 384 well assay plate contained 21 test compounds (column 1-22), and DMSO in column 23 and 24.
The baculovirus solution was then added 1:200 (may have varied according to virus batch) to the cells (measurement of THP1(vir) IC50).
(§2) 30 μL of the cell/virus-mix were added to each well of the compound plate from column 1-23 via MultiDrop Combi dispenser (5000 cells/well). In column 24, 30 μl/5000 cells/well without virus were added as a low control.
(§3) The plates were then incubated for 18 h at 37° C. in a humidified incubator.
(§4) Following that, 15 μL of QuantiLuc detection reagent (InvivoGen #rep-qlcg5) were added to each well using a MultiDrop Combi. Measurement was done immediately after the addition using an EnVision reader (US-luminescence read-mode).
Data Evaluation and Calculation:
(§5) For data evaluation and calculation, the measurement of the low control was set as 0% control and the measurement of the high control was set as 100% control. The IC50 values were calculated using the standard 4 parameter logistic regression formula. Calculation: [y=(a−d)/(1+(x/c)^b)+d], a=low value, d=high value; x=conc M; c=1C50 M; b=slope

For assay [2], the system named is IFN induction in cGAMP-stimulated THP1 cells. Nature of the assay: cGAMP stimulated counter cell assay, THP1-Dual cells, Lucia luciferase reporter (THP1(cGAMP) IC50).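 Note: IRF-driven Lucia luciferase luminescence after 18 h at 37° C, compound series topping at 10 µM with 1% DMSO, unstimulated wells as 0% and DMSO wells as 100%.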 Type of assay: cell-based. Conditions: Homo sapiens, THP-1, THP1-Dual cells stimulated with 10 μM cGAMP.
Source text: 6.2 Method: Human cGAS Cell Assay and cGAMP Stimulated Counter Cell Assay (THP1(vir) IC50 and THP1(cGAMP) IC50)
THP1-Dual™ cells (InvivoGen #thpd-nfis) expressing IRF dependent Lucia luciferase reporter were used as basis for both assays.
as §1
Compounds were delivered in 10 mM DMSO solution, serially diluted and transferred to the 384 well assay plate (Greiner #781201) using an Echo acoustic dispenser. Typically, 8 concentrations were used with the highest concentration at 10 μM in the final assay volume followed by ˜1:5 dilution steps. DMSO concentration was set to 1% in the final assay volume. The 384 well assay plate contained 21 test compounds (column 1-22), and DMSO in column 23 and 24.
as §2, §3, §4
Data Evaluation and Calculation:
as §5
Assay [3] concerns IFN induction in dsDNA-stimulated human whole blood. Description: Human whole blood assay, dsDNA transfection, IFNα2a production (hWB IC50).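 Note: cGAS pathway activity, IFNα2a in plasma by MSD immunoassay after 22 h at 37 °C, 8 concentrations up to 10 µM in 0.1% DMSO, DMSO controls.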 Type of assay: cell-based.
Procedure: For the detection of cellular cGAS activity human whole blood was stimulated by transfection with double stranded DNA. Pathway activity was monitored by measuring the IFNα2α production.
Typically, 8 concentrations were used with the highest concentration at 10 μM in the final assay volume followed by ˜1:5 dilution steps. DMSO concentration was set to 0.1% in the final assay volume. The 96-well assay plate contained 10 test compounds, and DMSO in control wells.
Whole blood was kept at room temperature for a maximum of 3 hours after collection until use in the assay.
160 μl of the whole blood samples was transferred to each well of the 96-well assay plates filled with compound/OptiMEM. All assay plates were prepared as duplicates with blood from different donors. Blood plates were kept at room temperature for 60 minutes and continuous shaking with 450 rpm, covered with the lid, but not sealed.
20 μl OptiMEM and 9.6:1 Fugene was added to all low control wells.
After covering assay plates with aera seals and the lid, blood plates were kept at room temperature for 30 minutes and continuous shaking with 450 rpm, followed by an overnight incubation of 22 h at 37° C. in the incubator, without shaking.
U-Plex MSD GOLD 96-well Small Spot Strepavidin SECTOR Plates (Meso Scale Diagnostics #L45SA-5) were coated with 25 μl diluted capture antibody. Coated plates were incubated for 60 min at room temperature under continuous shaking at 700 rpm. MSD IFNα-2a plates were washed three times with 150 μl wash buffer (1×HBSS, 0.05% Tween).
After blocking the plates with 100 μl block solution/well (1×HBSS with 0.2% Tween, 2% BSA) for 60 min at room temperature and continuous shaking at 700 rpm, plates were emptied as dry as possible by dumping just before continuing with the human plasma.
Whole Blood assay plates were centrifuged at 1600 rpm for 10 minutes. 25 μl of supernatant was transferred with a pipetting robot from each whole blood plate to the corresponding IFNα-2a plate.
Plates were sealed with microplate seals and kept at room temperature again under continuous shaking at 700 rpm for two hours.
Next MSD IFNα-2a plates were washed three times with 150 μl wash buffer (1×HBSS, 0.05% Tween), before adding 25 μl MSD SULFO-TAG IFNα-2a Antibody solution (1:100 diluted in Diluent 3 (Meso Scale Diagnostics #R50AP-2) to each well of the plates.
Afterwards plates were sealed with microplate seals and kept at room temperature again under continuous shaking at 700 rpm for two hours. Finally, MSD IFNα-2α plates were washed three times with 150 μl wash buffer (1×HBSS, 0.05% Tween). 150 μl 2× Read buffer was added to each well and plates were immediately measured with the MSD Sector S600 Reader using the vendor barcode.
For data evaluation and calculation, % control calculation of each well was based on the mean of high (DNA stimulated control) and mean of low (unstimulated control) controls by using the following formula: [counts(sample)−counts(low))/(counts(high)−counts(low))]*100
The IC50 values were calculated using the standard 4 parameter logistic regression formula. Calculation: [y=(a−d)/(1+(x/c)^b)+d], a=low value, d=high value; x=conc M; c=1C50 M; b=slope

pIC50: −log10 of the molar value. Where only a bound is given, the exact number is not on record here.

Sequence of Human cGAS (Q8N884 whole entry): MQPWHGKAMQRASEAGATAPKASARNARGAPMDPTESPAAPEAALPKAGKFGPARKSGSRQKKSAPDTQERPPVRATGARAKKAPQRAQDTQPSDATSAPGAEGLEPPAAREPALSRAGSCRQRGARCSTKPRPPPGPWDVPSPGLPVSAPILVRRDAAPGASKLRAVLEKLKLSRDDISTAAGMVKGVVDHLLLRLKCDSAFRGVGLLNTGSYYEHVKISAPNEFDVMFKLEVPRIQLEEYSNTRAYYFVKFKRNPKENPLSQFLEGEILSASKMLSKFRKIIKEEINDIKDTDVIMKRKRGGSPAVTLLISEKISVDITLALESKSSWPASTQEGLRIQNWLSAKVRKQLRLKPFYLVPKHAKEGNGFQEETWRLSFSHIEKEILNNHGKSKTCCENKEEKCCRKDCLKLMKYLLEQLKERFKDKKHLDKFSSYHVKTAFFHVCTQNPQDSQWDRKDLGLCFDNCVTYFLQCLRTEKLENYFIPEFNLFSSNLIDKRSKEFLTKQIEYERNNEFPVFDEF

As a reminder, the pIC50 is the negative decadic logarithm of the IC50, by convention in mol/L. The low end stands for a large IC50, the high end for a small IC50. For the compound `C#Cc1cnc(O[C@H]2C[C@@H](C(=O)O)N(c3nc(C(F)F)nc4c3oc3ccccc34)C2)c([C@@]2(F)CC(C)(C)S(=O)(=O)C[C@@H]2C)c1` [Example 1.09], the pIC50 against Human cGAS is 8.40; in assay [1], over 8.30; in assay [2], 4.80; in assay [3] it was 8.40. Besides, the “Ratio THP(cGAMP) IC50/THP(vir) IC50” value in assay [1] was over 2935.
With `C[C@H]1CS(=O)(=O)CC[C@]1(F)c1cc(Cl)cnc1O[C@H]1C[C@@H](C(=O)O)N(c2nc(C(F)F)nc3c2oc2ccccc23)C1` [Example 1.13], the pIC50 on Human cGAS was 8.70; in assay [1] it was 8.22; in assay [2], 4.65; in assay [3] it was 8.22.
Consider `O=C(O)[C@@H]1C[C@H](Oc2ncc(Cl)cc2[C@]2(F)CCOC[C@@H]2C(F)(F)F)CN1c1nc(C(F)F)nc2c1oc1ccccc12` [Example 1.25], for which the pIC50 against Human cGAS was 8.00; in assay [1], 6.15; in assay [2], 4.87; in assay [3], 6.30. Besides, in assay [1], the “Ratio THP(cGAMP) IC50/THP(vir) IC50” value is given as 19.
For `CC1(C)C[C@](F)(c2cc(Cl)cnc2O[C@H]2C[C@@H](C(=O)O)N(c3nc(C(F)F)nc4c3oc3ccccc34)C2)CCS1(=O)=O` [Example 2.08] the same measures were 8.30, 7.60, 4.92, 7.55 and 479.
Regarding `O=C(O)[C@@H]1C[C@H](Oc2ncc(Cl)cc2[C@]2(F)CCS(=O)(=O)C3(CC3)C2)CN1c1nc(C(F)F)nc2c1oc1ccccc12` [Example 1.17], the pIC50 against Human cGAS was 8.52; in assay [1] it was 7.27; in assay [2] it was 4.65; in assay [3], 7.35. The “Ratio THP(cGAMP) IC50/THP(vir) IC50” value in assay [1] worked out at 412.
For the compound `Cc1nc(N2C[C@@H](CC(=O)Nc3ccncc3)C[C@H]2C(=O)O)c2oc3ccccc3c2n1` [Example 28, reference compound], the results for the pIC50 in assay [1], in assay [2] and in assay [3] were under 4.49, under 4.77 and under 5.00, respectively.
As for `C[C@H]1COCC[C@]1(F)c1cc(Br)cnc1O[C@H]1C[C@@H](C(=O)O)N(c2nc(C(F)F)nc3c2oc2ccccc23)C1` [Example 2.16], the pIC50 on Human cGAS was 8.40; in assay [1], 6.90; in assay [2], under 4.78; in assay [3], 6.49. Besides, the “Ratio THP(cGAMP) IC50/THP(vir) IC50” value in assay [1] is given as 133.
Turning to `C[C@H]1COCC[C@]1(F)c1cc(-c2cnn(C(F)F)c2)cnc1O[C@H]1C[C@@H](C(=O)O)N(c2nc(C(F)F)nc3c2oc2ccccc23)C1` [Example 6.01, (2S,4S)-4-({5-[1-(Difluoromethyl)-1H-pyrazol-4-yl]-3-[(3S,4R)-4-fluoro-3-methyloxan-4-yl]pyridin-2-yl}oxy)-1-[4-(difluoromethyl)-8-oxa-3,5-diazatricyclo[7.4.0.0^2,7]trideca-1(9),2(7),3,5,10,12-hexaen-6-yl]pyrrolidine-2-carboxylic acid], the pIC50 was 8.30 against Human cGAS, 7.46 in assay [1], under 5.00 in assay [2] and 7.09 in assay [3]. The “Ratio THP(cGAMP) IC50/THP(vir) IC50” value in assay [1] was over 289.
Consider `C#Cc1cnc(O[C@H]2C[C@@H](C(=O)O)N(c3nc(C(F)F)nc4c3oc3ccccc34)C2)c([C@]2(F)CCOC[C@@H]2C)c1` [Example 1.03], for which the pIC50 was 8.70 on Human cGAS, 6.55 in assay [1], under 4.78 in assay [2] and 6.86 in assay [3]. In addition, in assay [1], the “Ratio THP(cGAMP) IC50/THP(vir) IC50” value is given as over 59.
For `COc1cncc(-c2cnc(O[C@H]3C[C@@H](C(=O)O)N(c4nc(C(F)F)nc5c4oc4ccccc45)C3)c([C@@]3(F)CCOC[C@@H]3C)c2)c1` [Example 6.02] the same measures were 8.22, 8.30, under 4.78, 7.35 and over 3212.
On to `CC(=O)N1CC[C@](F)(c2cc(-c3cccc(N(C)C)c3)cnc2O[C@H]2C[C@@H](C(=O)O)N(c3nc(C(F)F)nc4c3oc3ccccc34)C2)[C@@H](C)C1` [Example 3.04], for which the pIC50 against Human cGAS was 7.54; in assay [1], 7.80; in assay [2], 4.98; in assay [3] it was 7.34. The “Ratio THP(cGAMP) IC50/THP(vir) IC50” value in assay [1] was found to be 650.
For `O=C(O)[C@@H]1C[C@H](Oc2ncc(Br)cc2C2(F)CCS(=O)(=O)CC2)CN1c1nc(C(F)F)nc2c1oc1ccccc12` [Example 2.04], the pIC50 on Human cGAS is 8.30; in assay [1], 6.20; in assay [2], under 4.78; in assay [3], 6.94. In addition, the “Ratio THP(cGAMP) IC50/THP(vir) IC50” value in assay [1] was over 26.
In the case of `COc1cc(-c2cnc(O[C@H]3C[C@@H](C(=O)O)N(c4nc(C(F)F)nc5c4oc4ccccc45)C3)c([C@@]3(F)CCN(C(C)=O)C[C@@H]3C)c2)c(F)cn1` [Example 3.03], the pIC50 against Human cGAS was 7.92; in assay [1], 7.74; in assay [2] it was 4.98; in assay [3], 7.28. For the same compound, in assay [1], the “Ratio THP(cGAMP) IC50/THP(vir) IC50” value worked out at 568.
Turning to `C[C@H]1CN(C2COC2)CC[C@]1(F)c1cc(Cl)cnc1O[C@H]1C[C@@H](C(=O)O)N(c2nc(C(F)F)nc3c2oc2ccccc23)C1` [Example 1.23], the pIC50 was 7.82 on Human cGAS, 6.73 in assay [1], 5.08 in assay [2] and 6.78 in assay [3]. The “Ratio THP(cGAMP) IC50/THP(vir) IC50” value in assay [1] worked out at 45.
Take `O=C(O)[C@@H]1C[C@H](Oc2ncc(Cl)cc2[C@]2(F)CCS(=O)(=O)C3(CCC3)C2)CN1c1nc(C(F)F)nc2c1oc1ccccc12` [Example 1.21]: the pIC50 on Human cGAS was 8.30; in assay [1], 6.90; in assay [2], 5.03; in assay [3], 7.12. The “Ratio THP(cGAMP) IC50/THP(vir) IC50” value in assay [1] amounted to 74.
For `C#Cc1cnc(O[C@H]2C[C@@H](C(=O)O)N(c3nc(C(F)(F)F)nc4c3oc3ccccc34)C2)c([C@]2(F)CCS(=O)(=O)C(C)(C)C2)c1` [Example 1.14] the same measures were 8.05, 7.38, 5.28, 7.28 and 127.
As to `CO[C@]1(c2cc(Cl)cnc2O[C@H]2C[C@@H](C(=O)O)N(c3nc(C(F)F)nc4c3oc3ccccc34)C2)CC(C)(C)S(=O)(=O)C[C@@H]1C` [Example 1.05], the pIC50 against Human cGAS was 8.70; in assay [1], 7.36; in assay [2] it was 4.88; in assay [3], 6.87. Besides, the “Ratio THP(cGAMP) IC50/THP(vir) IC50” value in assay [1] is 298.
In the case of `CC(=O)N1CC[C@](F)(c2cc(Cl)cnc2O[C@H]2C[C@@H](C(=O)O)N(c3nc(C(F)F)nc4c3oc3ccccc34)C2)[C@@H](C)C1` [Example 1.22], the negative-log IC50 (pIC50) on Human cGAS was 8.40; in assay [1], 7.07; in assay [2] it was 4.79; in assay [3] it was 6.94. Moreover, the “Ratio THP(cGAMP) IC50/THP(vir) IC50” value in assay [1] came to 189.
Regarding `O=C(O)[C@@H]1C[C@H](Oc2ncc(Cl)cc2C2(F)CCS(=O)(=O)CC2)CN1c1nc(C(F)F)nc2c1oc1ccccc12` [Example 2.01, (2S,4S)-4-{[5-Chloro-3-(4-fluoro-1,1-dioxo-1-I-6-thian-4-yl)pyridin-2-yl]oxy}-1-[4-(difluoromethyl)-8-oxa-3,5-diazatricyclo[7.4.0.0^2,7]trideca-1(13),2,4,6,9,11-hexaen-6-yl]pyrrolidine-2-carboxylic acid], the figures for the pIC50 (against Human cGAS; in assay [1]; in assay [2]) were 8.52, 6.75 and under 4.78, respectively. Besides, in assay [1], the “Ratio THP(cGAMP) IC50/THP(vir) IC50” value is over 93.
Take `C[C@H]1CS(=O)(=O)C(C)(C)C[C@@]1(F)c1cc(Cl)cnc1O[C@H]1C[C@@H](C(=O)O)N(c2nc(C(F)(F)F)nc3c2oc2ccccc23)C1` [Example 1.07]: the pIC50 on Human cGAS is 7.16; in assay [1], 6.67; in assay [2] it was 5.43; in assay [3] it was 6.67. In assay [1], the “Ratio THP(cGAMP) IC50/THP(vir) IC50” value was determined as 17.
As for `CC(C)(C(=O)N[C@H]1C[C@@H](C(=O)O)N(c2nc(C(F)(F)F)nc3c2oc2ccccc23)C1)c1cn[nH]c1` [Example 58, reference compound], the values for the pIC50 in assay [1], in assay [2] and in assay [3] were 4.68, 4.64 and under 5.00, respectively.
Take `CC1(C)C[C@](F)(c2cc(Cl)cnc2O[C@H]2C[C@@H](C(=O)O)N(c3nc(C(F)(F)F)nc4c3oc3ccccc34)C2)CCS1(=O)=O` [Example 2.09]: the pIC50 at Human cGAS is 7.96; in assay [1], 6.77; in assay [2], 5.26; in assay [3], 7.05. Besides, in assay [1], the “Ratio THP(cGAMP) IC50/THP(vir) IC50” value came to 33.
`Cc1nc(N2C[C@@H](Nc3ccncc3)C[C@H]2C(=O)O)c2oc3ccccc3c2n1` [Example 38, reference compound]: the pIC50 in assay [1] was under 4.77; in assay [2], under 4.77; in assay [3] it was under 5.00.
Turning to `C[C@@H]1CS(=O)(=O)CC[C@@]1(F)c1cc(Cl)cnc1O[C@H]1C[C@@H](C(=O)O)N(c2nc(C(F)F)nc3c2oc2ccccc23)C1` [Example 1.12], the pIC50 against Human cGAS is 8.05; in assay [1], 6.50; in assay [2], 4.81.
With `C[C@H]1COCC[C@]1(O)c1cc(Cl)cnc1O[C@H]1C[C@@H](C(=O)O)N(c2nc(C(F)F)nc3c2oc2ccccc23)C1` [Example 1.01, (2S,4S)-4-({5-Chloro-3-[(3S,4R)-4-hydroxy-3-methyloxan-4-yl]pyridin-2-yl}oxy)-1-[4-(difluoro-methyl)-8-oxa-3,5-diazatricyclo[7.4.0.0^2,7]trideca-1(13),2,4,6,9,11-hexaen-6-yl]pyrrolidine-2-carboxylic acid], the pIC50 against Human cGAS is 8.30; in assay [1] it was 6.28; in assay [2] it was under 4.78. The “Ratio THP(cGAMP) IC50/THP(vir) IC50” value in assay [1] was over 31.
For the compound `Cc1nc(N2CCC[C@H]2C(=O)O)c2oc3ccccc3c2n1` [Example 15, reference compound], the pIC50 in assay [1] and in assay [2] was under 4.77 each time.
